Where a name gives a salt, the structure may show the parent alone.
How the values were obtained:
[1] = tested on: colon adenocarcinoma #38; assay: antitumor activity in mice against colon adenocarcinoma #38; format: in vivo
Procedure: (§1) Representative examples of the invention were tested for antitumor activity in mice according to the following procedure:
(§2) The animals were pooled, implanted subcutaneously with 30 to 60 mg tumor fragments by 12-gauge trocar, and again pooled before unselective distribution to the various treatment and control groups. For early-stage treatment, chemotherapy was started within 1 to 5 days after tumor implantation while the number of cells was relatively small (10^7 to 10^8 cells). For advanced-stage treatment, chemotherapy was delayed until the tumor became relatively large (200 to 300 mg in size). A 300-mg tumor contains approximately 3×10^8 total cells. […] Tumors were measured with a caliper weekly (or twice weekly for the more rapidly growing tumors). Mice were sacrificed when their tumors reached 1500 mg (i.e., before they can cause the animal discomfort). Tumor weights were estimated from two-dimensional measurements.
(§3) The treatment and control groups were measured when the control group tumors reached approximately 700 to 1200 mg in size (Median of Group). The median tumor weight of each group was determined (including zeros). […] A T/C value <10% is considered to indicate highly significant antitumor activity.
(§4) The results are shown in Table I for pancreatic ductal adenocarcinoma #03 and in Table 2 for colon adenocarcinoma #38.

[2] = tested on: pancreatic ductal adenocarcinoma #03; assay: antitumor activity in mice against pancreatic ductal adenocarcinoma #03 (Panc 03); format: in vivo
Procedure: as §1, §2, §3, §4

[3] = Table 2, i.v., total dose mg/kg by Example: 2:600, 5:960, 6:132, 7:840, 16(a):1000, 18(e):180
[4] = Table 2, i.v., total dose mg/kg by Example: 6:82, 16(a):690, 18(e):120
[5] = Table 1, average body weight 25 g, total doses as in E1
[6] = Table 2, i.p., total dose mg/kg by Example: 10:340, 11:518
[7] = Table 2, p.o., total dose mg/kg by Example: 10:460, 11:885
[8] = Table 2, p.o., total dose mg/kg by Example: 10:740, 11:1709

Compound | T/C [2] | Weight Loss [2, 5] | Drug Deaths ([2]; Table 1, total doses as in E1) | Weight Loss ([2]; mouse, in vivo) | further results
CCN(CC)CCNc1ccc(CNC(=O)C(F)(F)F)c2sc3ccccc3c(=O)c12 [16(a), N-[[1-[[2-(Diethylamino)ethyl]amino]-9-oxothioxanthen-4-yl]methyl]-trifluoroacetamide] | 21% | +0.8 g | 0 | – | Drug Deaths [1, 3]: 0; Drug Deaths [1, 4]: 0; Weight Loss [1, 4]: 1.5 g; Weight Loss ([1]; mouse, in vivo, iv): 1.2 g
CCN(CC)CCCNc1ccc(CNC)c2sc3ccccc3c(=O)c12 [17(f), 1-[[3-(Diethylamino)propyl]amino]-4-(methylaminomethyl)thioxanthen-9-one dihydrochloride 3/2 hydrate] | 17% | – | 0 | 2.0 g | –
CN(C)CCNc1ccc(CN)c2sc3ccccc3c(=O)c12 [18(e), 4-(Aminomethyl)-l-[[2-dimethylamino)ethyl]amino]-9-oxothioxanthen-9-one dihydrochloride·1/2 hydrate] | – | 1.0 g | 0 | – | Drug Deaths [1, 3]: 4/5; Drug Deaths [1, 4]: 0; Weight Loss [1, 4]: 1.0 g; Weight Loss ([1]; mouse, in vivo, iv): 2.2 g
CN(C)CCNc1ccc(CNS(C)(=O)=O)c2sc3ccccc3c(=O)c12.CS(=O)(=O)O [18(f), N-[[1-[[2-(Dimethylamino)ethyl]amino]-9-oxothioxanthen-4-yl]methyl]methanesulfonamide methanesulfonate] | – | 5.2 g | 2/5 | – | –
CNCc1ccc(NCCCN(C)C)c2c(=O)c3ccccc3sc12 [19(e), 1-[[3-(Dimethylamino)propyl]amino]-4-[(methylaminomethyl]thioxanthen-9-one dihydrochloride monohydrate] | 4% | – | 0 | 3.4 g | –
CNCc1ccc(NCCN(C)C)c2c(=O)c3ccccc3sc12 [20(b), 1-[[2-(Dimethylamino)ethyl]amino]-4-[(methylamino)-methyl]thioxanthen-9-onedihydrochloride-5/4 hydrate] | 10% | – | 0 | 0.4 g | –
CN(C)CCCNc1ccc(CNS(C)(=O)=O)c2sc3ccccc3c(=O)c12 [21(c), N-[[1-[[3-(Dimethylamino)propyl]amino]-9-oxothioxanthen-4-yl]methyl]methanesulfonamide methanesulfonate·1/2 hydrate] | 0% | – | 0 | 4.5 g | –
CCN(CC)CCNc1ccc(C=Nc2ccccc2)c2sc3ccccc3c(=O)c12 [Example 1, 1-[[2-(Diethylamino)ethyl]amino]-4-(N-phenylformimidoyl)thioxanthen-9-one] | 0% | 1.6 g | 0 | – | –
CCN(CC)CCNc1ccc(CNC=O)c2sc3ccccc3c(=O)c12 [Example 2, N-[[1-[[2-(Diethylamino)ethyl]amino]-9-oxothioxanthen-4-yl]methyl]formamide] | 0% | 2.0 g | 0 | – | Drug Deaths [1, 3]: 0; T/C ([1]; iv): 0%; Weight Loss ([1]; mouse, in vivo, iv): 2.8 g
CCN(CC)CCNc1ccc(CN)c2sc3ccccc3c(=O)c12 [Example 4, 4-(Aminomethyl)-1-[[2-(diethylamino)ethyl]amino]-thioxanthen-9-one] | 0% | 0.4 g | 0 | – | –
CCN(CC)CCNc1ccc(C(N)=O)c2sc3ccccc3c(=O)c12 [Example 7, 1-[[2'-(Diethylamino)ethyl]amino]-9-oxothioxanthene-4-carboxamide] | – | 3.2 g | 1/5 | – | Drug Deaths [1, 3]: 0; Weight Loss ([1]; mouse, in vivo, iv): 0.6 g
CCN(CC)CCNc1ccc(CN(C)S(C)(=O)=O)c2sc3ccccc3c(=O)c12 [Example 8, N-[[1-[[2-(Diethylamino)ethyl)amino]-9-oxothioxanthen-yl]methyl]N-methylmethanesulfonamide] | 0% | – | 0 | 0.8 g | –
CCN(CC)CCNc1ccc(CNS(=O)(=O)c2ccccc2)c2sc3ccccc3c(=O)c12 [Example 9, N-[[1-[[2-(Diethylamino)ethyl]amino]-9-oxothioxanthen-4-yl]methyl]phenylsulfonamide] | 8% | 1.6 g | 0 | – | –
CCN(CC)CCNc1ccc(CNC(=O)c2ccccc2)c2sc3ccccc3c(=O)c12 [Example 11, N-[[1-[[2-(Diethylamino)ethyl]amino]-9-oxothioxanthen-4-yl]methyl]benzamide] | 0% | 0.8 g | 0 | – | Drug Deaths [1, 6]: 0; Weight Loss [1, 6]: 0.8 g; Drug Deaths [1, 7]: 0; Weight Loss [1, 7]: 0.8 g; Drug Deaths [1, 8]: 0; Weight Loss [1, 8]: 2.0 g; T/C ([1]; ip): 39%; T/C ([1]; po): 0%
CCOP(=O)(NCc1ccc(NCCN(CC)CC)c2c(=O)c3ccccc3sc12)OCC [Example 12] | – | 3.2 g | 0 | – | –
CCNCc1ccc(NCCN(CC)CC)c2c(=O)c3ccccc3sc12 [Example 14, 1-[[2-(Diethylamino)ethyl]amino]-4-[(ethylamino)-methyl]thioxanthen-9-one] | 0% | 1.2 g | 0 | – | –
CCN(CC)CCNc1ccc(CN=CN(C)C)c2sc3ccccc3c(=O)c12 [Example 15, 1-[[2-(Diethylamino)]ethyl]amino]-4-(dimethylaminomethylene-aminomethyl)-thioxanthen-9-one trihydrochloride] | 0% | – | 0 | 2.0 g | –
CCN(CC)CCNc1ccc(CN(C)S(=O)(=O)CC)c2sc3ccccc3c(=O)c12.CS(=O)(=O)O [Example 22, N-[[1-[[2-(Diethylamino)ethyl]amino]-9-oxothioxanthen-4-yl]methyl]-N-methyl-ethanesulfonamide methanesulfonate] | 0% | 3.2 g | 0 | – | –
CCN(CC)CCNc1ccc(CNS(=O)(=O)c2ccc(OC)cc2)c2sc3ccccc3c(=O)c12.CS(=O)(=O)O [Example 23, N-[[1-[[2-(Diethylamino)ethyl]amino]-9-oxothioxanthen-4-yl]methyl](p-methoxy)benzenesulfonamide methanesulfonate] | 20% | 2.4 g | 0 | – | –
CCN(CC)CCNc1ccc(CNS(=O)(=O)CC)c2sc3ccccc3c(=O)c12.CS(=O)(=O)O [Example 24, N-[[1-[[2-(Diethylamino)ethyl]amino]-9-oxothioxanthen-4-yl]methyl]ethanesulfonamide methanesulfonate] | 0% | 2.3 g | 0 | – | –
CCN(CC)CCNc1ccc(CNS(=O)(=O)c2ccc(Cl)c(Cl)c2)c2sc3ccccc3c(=O)c12 [Example 26, N-[[1-[[2-(Diethylamino)ethyl]amino]-9-oxothioxanthen-4-yl]methyl]-3,4-dichlorobenzenesulfonamide methanesulfonate·1/2 hydrate] | 13% | – | 0 | 2.2 g | –
CCN(CC)CCNc1ccc(CNS(=O)(=O)c2ccccc2F)c2sc3ccccc3c(=O)c12 [Example 27, N-[[1-[[2-(Diethylamino)ethyl]amino]-9-oxothioxanthen-4-yl]methyl]-2-fluorobenzenesulfonamide] | 5% | +0.8 g | 0 | – | –
CCCN(Cc1ccc(NCCN(CC)CC)c2c(=O)c3ccccc3sc12)S(C)(=O)=O [Example 28, N-[[1-[[2-(Diethylamino)ethyl]amino]-9-oxothioxanthen-4-yl]methyl]-N-propyl-methanesulfonamide] | 0% | 2.8 g | 0 | – | –
CCN(CC)CCNc1ccc(CN(C)S(=O)(=O)c2ccccc2)c2sc3ccccc3c(=O)c12.CS(=O)(=O)O [Example 29, N-[[1-[[2-(Diethylamino)ethyl]amino]-9-oxothioxanthen-4-yl]methyl]-N-methyl-benzenesulfonamide methanesulfonate] | 6% | 2.4 g | 0 | – | –
CCN(CC)CCNc1ccc(CNS(C)(=O)=O)c2sc3ccc(Br)cc3c(=O)c12 [Example 33, N-[[1-[[2-(Diethylamino)ethyl]amino]-7-bromo-9-oxothioxanthen-4-yl]methyl]methanesulfonamide] | 28% | 2.0 g | 0 | – | –
CCN(CC)CCNc1ccc(CNS(C)(=O)=O)c2sc3ccc(O)cc3c(=O)c12 [Example 37, N-[[1-(2-Diethylamino)ethyl]amino]-7-hydroxy-9-oxothioxanthen-4-yl]methyl]methanesulfonamide·3/4 hydrate] | 7% | – | 0 | 0 g | –
